# Publication PMC5913603, “Structure–activity relationships of strigolactones via a novel, quantitative in planta bioassay” (Journal of Experimental Botany, 2018)
# Like-named read-outs stand apart in the source and are kept apart here.
# Columns and labels:
# [1] = Chemical stability in aqueous solutions, degradation followed by HPLC; format: physicochemical
# Method: The compounds were first dissolved in methanol (30%) or acetonitrile (50%) and then diluted to the final concentrations with water. The time-course of degradation was monitored by HPLC using an Agilent Technologies HPLC chromatograph 1200 Series equipped with a photo-diode array (PDA) detector, a binary-gradient high-pressure pump, and an automatic sampler. The column used was a LiChroCART® 125-4 LiChrospher® 100 RP-18 (5 μm, Merck Millipore) maintained at 25 °C. The solvents were (A) water + 0.1% formic acid and (B) acetonitrile, and the flow rate was 0.8 ml min^–1. The initial mobile phase, 95% A / 5% B, was held for 3 min and then ramped linearly to 100% B at 23 min and held for 5 min before resetting to the original conditions. The sample injection volume was 10 μl. PDA detection was by absorbance in the 200–600-nm wavelength range. Peak detection was at the optimum wavelength (254 nm) and peak areas were used for quantification. Initial and subsequent measurements of peak area attributable to the tested compound were used to fit exponential half-life curves and to calculate first-order rate constants. Stability data allowed for calculation of the time in hours for half of the tested compound to be hydrolysed (t1/2).
# Natural and synthetic SLs are rather sensitive to hydrolysis at pH 7 and are readily decomposed through the cleavage of the D-ring at pH 9.38 ([Vurro et al., 2016]). Therefore, differences in activity among SL analogues may be attributed to their instability in the aqueous medium. In order to address this point, the stability in aqueous solutions of the newly synthesized SL-D-lactams was tested, and compared to the (+)-GR24 standard ([Kannan and Zwanenburg, 2014]; [Halouzka et al., 2018]). Two different conditions were considered, a 30% solution of MeOH in water and a 1:1 solution of acetonitrile in water. As expected, stability in MeOH was highly compromised for all compounds, but to a greater extent for analogues showing both the Michael acceptor function (enol ether bridge) and an unprotected N in the D-lactam ring, as for rac-3, rac-4, rac-5, and rac-7 (Table 1): after a few hours 50% of the compounds were degraded. This was not surprising from a chemical point of view, as the functional group in SL-D-lactams is an aminal, which is more prone to hydrolysis than the acetal of the natural SL skeleton. […] For rac-5, the NH compound in the EGO10 family, the half-life dropped to 2 h.
# [2] = system: Phelipanche aegyptiaca seeds; test: Germination-inducing activity on parasitic seeds; format: in vivo; settings: for Fold lower potency than rac-GR24 (germination): compared with rac-GR24; for Concentration at which high germination activity was shown: high activity only at this concentration, germination normalized to rac-GR24 0.1 μM
# Method: Seeds of Phelipanche aegyptiaca were collected from field-grown tomato in the West Galilee region of Israel. The seeds were stored in glass vials in the dark at room temperature until their use in germination tests. For the preparation of test solutions, the compound to be tested was weighed out very accurately, dissolved in acetone at 10^–2 M and then diluted with sterile distilled water to the desired concentrations. All solutions were prepared just before use. Seeds were surface-sterilized and preconditioned as described by [Bhattacharya et al. (2009)]. Briefly, after exposure for 5 min to 50% (v/v) aqueous solutions of commercial bleach (2% hypochlorite), seeds were rinsed with sterile distilled water. For preconditioning, seeds were placed on glass fibre filter discs using a sterile toothpick (approximately 50 seeds per disc); the glass fibre discs were placed on two filter paper discs, wetted with sterile distilled water, and incubated at 25 °C in the dark for 6 d. The preconditioned seeds were then allowed to dry completely in a laminar flow cabinet, after which they were treated with each compound at five different concentrations: 10^–5 M, 10^–6 M, 10^–7 M, 10^–8 M, and 10^–9 M. Their germination rate was evaluated under a stereomicroscope 7 d after the beginning of the treatment. For each concentration, at least 250 seeds were scored; synthetic SL rac-GR24 was included as a positive control across the same range of concentrations, while a solution of 0.001% acetone in sterile distilled water was included as a negative control. Seeds were scored as germinated if the radicle protruded through the seed coat 1 week after treatment. Germination values were normalized to those of rac-GR24 at 10^–7 M.
# Fig. 3. Germination-inducing activity on Phelipanche aegyptiaca seeds of rac-1–9 and of strigol, ST23b, EGO10, and EDOT at different concentrations, compared to rac-GR24 0.1 μM as a positive control and to acetone as a negative control. […] The x-axis indicates the range of concentrations. Data are means (±SD) of n>250 seeds. Confidence intervals at 95% are used to express errors of the means. The data for rac-1–9 are indicated by ‘D-lactams’.
# [3] = biological target: T1, AtD14 fused to firefly luciferase (D14::LUC) (Arabidopsis thaliana, UniProt Q9SQR3); test: Luminometer (luciferase) assay: D14::LUC degradation in transgenic Arabidopsis seedlings; format: in vivo; settings: for Activity in the luciferase assay at 1 μM: weaker than (+)-GR24; for D14 degradation in the luciferase assay: 0.01–100 μM range, racemic mixtures
# T1 construct: a pDONOR207 carrying the D14 promoter fused to the D14 CDS; expressed in transfected cells
# T1 sequence (Q9SQR3 1-267): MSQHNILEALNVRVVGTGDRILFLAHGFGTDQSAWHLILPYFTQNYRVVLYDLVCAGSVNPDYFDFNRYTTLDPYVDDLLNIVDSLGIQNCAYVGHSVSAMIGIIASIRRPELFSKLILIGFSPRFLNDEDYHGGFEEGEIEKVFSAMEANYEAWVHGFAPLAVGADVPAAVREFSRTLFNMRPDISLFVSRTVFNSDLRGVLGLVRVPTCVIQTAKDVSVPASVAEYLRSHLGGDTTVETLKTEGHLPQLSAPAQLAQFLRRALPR
# Method: A binary D14p::D14::LUC vector was obtained by LR-recombination (Invitrogen) of a pDONOR207 carrying the D14 promoter fused to the D14 CDS ([Chevalier et al., 2014]) in pGWB435 ([Nakagawa et al., 2007]). Transgenic D14::D14::LUC Arabidopsis plants were generated by agroinfiltration of Col-0 plants using the floral dip method ([Clough and Bent, 1998]). Seeds were surface-sterilized with an 8% aqueous solution of commercial bleach in distilled water for 5 min and rinsed five times with sterile distilled water. Sterile seeds were plated on MS medium (pH 5.8) ([Murashige and Skoog, 1962]) without sucrose solidified with 1.2% Agar, and kept at 4 °C for 3 d (stratification). Seeds were then incubated for 7 d in a growth chamber at 25 °C and a photoperiod of 16 h light/8 h dark. SL analogues and mimics (Figs 1, 2) were accurately weighed and dissolved in acetone at 10^–2 M. Five different concentrations (10^–4 M, 10^–5 M, 10^–6 M, 10^–7 M, 10^–8 M) were prepared by 1:10 serial dilutions in liquid MS medium, together with blank controls containing corresponding water and acetone volumes in the medium. D-Luciferin (potassium salt) stock was prepared at 25 mg ml^–1 in DMSO, aliquoted and stored at –80 °C until use; all other solutions were prepared just before the assay. Using tweezers, 7-d-old Arabidopsis seedlings were placed in a 96-well microtiter plate with their cotyledons facing up (one seedling per well, in 170 µl of liquid MS medium), and 15 µl of luciferin (0.125 mg ml^–1, diluted 1:200 in MS from stock) was added to each well, corresponding to 1.875 µg. The plate was covered with a transparent film with a hole poked above each well to allow for gas exchange. Measurements were taken every 15 min in a multimode reader (LB942 Tristar2 S, Berthold Technologies) for the following 24 h; the signal was allowed to stabilize for 2–3 h in the light before treatments were started by adding 15 µl per well of the different SLs in MS medium, thus reaching a final volume in each well of 200 µl and 9.4 µg ml^– of luciferin. Appropriate blank controls were added as well. Each treatment was applied to a minimum of 16 wells (seedlings), each of which was measured individually over time. The percentage efficacy of each compound molecule was calculated 6 h after treatment as a function of the decrease in D14::LUC-emitted luminescence with respect to (+)-GR24 1 µM (i.e. GR24^5DS), assuming that the latter, minus the drift of the corresponding blank control, had 100% efficacy. For calibration purposes, SL analogues that had already been characterized, namely (±)-ST23b, (±)-EGO10, and (±)-EDOT ([Prandi et al., 2011]), were tested across the same concentration range, along with (±)-strigol (Chiralix, NL). The half maximal-effective concentration (EC50) for (+)-GR24 was calculated by linear regression fitting of the data (n=5, with at least three individual seedlings and values being pooled for each replicate) at the different concentrations, minus the values for acetone-treated samples (negative controls) and normalized in relation to (+)-GR24 0.01 μM, which was set to 0%. Confidence intervals at 95% were used to express errors of the means.
# D14 is a target for proteasome-dependent destruction upon interaction with its ligand(s), which explains why fluorescence of D14::GFP fusion proteins is quenched upon SL treatment in transgenic Arabidopsis ([Chevalier et al., 2014]). We exploited this molecular network to implement a quantitative activity assay that inversely correlated luminescence to perception of SL-related molecules in transgenic Arabidopsis expressing D14::LUC under the control of the D14 endogenous promoter. […] We then used the assay to test various SLs in the same range, namely strigol as an example of natural SLs; ST23b, EGO10, and EDOT (Fig. 1, all used as rac mixtures) as examples of active SL analogues; and the new set of SL-D-lactams rac-1–9 (Fig. 2).
# Fig. 4. Luciferase assay. […]
# [4] = aqueous acetonitrile solution in HPLC vials, pH 6.7, 1:1 acetonitrile:water, 21 °C, pH 6.7, extrapolated from plots of peak area versus time, read-out: Half-life (t1/2, h) ACN:Water, 1:1 (converted)
# [5] = aqueous methanol solution in HPLC vials, pH 6.7, 30% MeOH in water, 21 °C, pH 6.7, extrapolated from plots of peak area versus time, read-out: Half-life (t1/2, h) 30% MeOH (converted)
# [6] = GraphPad fit, normalized with low acetone control
Compound,"half-life at 200 μg ml^–1 [1, 4]","half-life at 200 μg ml^–1 [1, 5]",Activity in the luciferase assay at 1 μM [3],D14 degradation in the luciferase assay [3],further results
CC1=C[C@H](O/C=C2/C(=O)O[C@@H]3c4ccccc4C[C@H]23)N(C(=O)OC(C)(C)C)C1=O (racemic) [rac-1],720 h,110 h,–,–,Fold lower potency than rac-GR24 (germination) [2]: ~ 100 fold; Concentration at which high germination activity was shown [2]: 10 µM
"CC1=C[C@H](O/C=C2/C(=O)O[C@@H]3c4ccccc4C[C@H]23)OC1=O (racemic) [rac-GR24, reference compound]",–,–,–,–,Concentration of maximum germination activity ([2]; concentrations equal to or above): ≥ 0.1 µM
CC1=C[C@H](O/C=C2/C(=O)O[C@@H]3c4ccccc4C[C@H]23)OC1=O [(+)-GR24],–,–,–,–,"half-life at 200 μg ml^–1 ([1]; buffer, pH 6.7, Half-life (t1/2, h) 30% MeOH): 80 h; half-life at 200 μg ml^–1 ([1]; buffer, pH 6.7, Half-life (t1/2, h) ACN:Water, 1:1): 3380 h; HILLSLOPE best-fit value (Table S1) [3, 6]: 0.4764; LOGIC50 best-fit value (Table S1) [3, 6]: -5.791; DC50 ([3]; read-out: EC50 (D14::LUC assay), 6 h after treatment, 0.01–100 μM, n=5): 1620 nM; DC50 ([3]; read-out: EC50 best-fit value (Table S1), GraphPad fit, normalized with low acetone control): 1620 nM"
CC1=CC(O/C=C2/C(=O)c3c(c4cc(-c5scc6c5OCCO6)ccc4n3C)C2C)OC1=O (centres unmarked) [EDOT],–,–,significant activity,induced high levels of D14 degradation,–
CC1=CC(O/C=C2\Cc3c(n(C)c4ccccc34)C2=O)OC1=O (centres unmarked) [EGO10],–,–,significant activity,induced high levels of D14 degradation,–
CC1=CC(O/C=C2/C(=O)c3c(c4cc(-c5ccc(N(C)C)cc5)ccc4n3C)C2C)OC1=O (centres unmarked) [ST23b],–,–,significant activity,induced high levels of D14 degradation,–

# Continued, in another order:
"half-life at 200 μg ml^–1 [1, 4]","half-life at 200 μg ml^–1 [1, 5]",Activity in the luciferase assay at 1 μM [3],D14 degradation in the luciferase assay [3],Compound,further results
140 h,21 h,–,–,CC1=C[C@H](O/C=C2/C(=O)O[C@H]3c4ccccc4C[C@@H]23)N(C(=O)OC(C)(C)C)C1=O (racemic) [rac-2],Concentration at which some germination activity could still be detected ([2]; tested 10^-9 to 10^-5 M): 1 µM
24 h,2 h,–,–,CC1=C[C@H](O/C=C2\Cc3c(n(C)c4ccccc34)C2=O)NC1=O (racemic) [rac-5],–
528 h,190 h,–,–,CC1=C[C@H](O/C=C2\Cc3c([nH]c4ccccc34)C2=O)N(C(=O)OC(C)(C)C)C1=O (racemic) [rac-6],–
17 h,11 h,–,–,CC1=C[C@H](Oc2ccc(Br)cc2)NC1=O (racemic) [rac-7],Fold lower potency than rac-GR24 (germination) [2]: ~ 100 fold; Concentration at which high germination activity was shown [2]: 10 µM
1080 h,230 h,–,–,CC1=C[C@H](Oc2ccc(Br)cc2)N(C(=O)OC(C)(C)C)C1=O (racemic) [rac-8],–
–,–,significant activity,induced high levels of D14 degradation,CC1=C[C@H](O/C=C2/C(=O)O[C@@H]3C4=C(C[C@H]23)[C@@H](O)CCC4(C)C)OC1=O [strigol],–
